Test results from ChEMBL document CHEMBL1649457, “Antibiotic susceptibility of Waddlia chondrophila in Acanthamoeba castellanii amoebae” (2009).
Converted amounts (≈) assume the structure as drawn.

Key:
[1] = test system: Parachlamydia acanthamoebae; assay: Antimicrobial activity against Parachlamydia acanthamoebae infected in Acanthamoeba castellanii amoeba cells; format: functional
[2] = test system: Chlamydia pneumoniae; assay: Antimicrobial activity against Chlamydophila pneumoniae infected in Vero cells; format: functional
[3] = Antimicrobial activity against Waddlia chondrophila ATCC VR-1470 infected in Acanthamoeba castellanii amoeba cells; format: functional, Waddlia chondrophila WSU 86-1044
[4] = Antimicrobial activity against Waddlia chondrophila ATCC VR-1470 infected in Vero cells; format: functional, Waddlia chondrophila WSU 86-1044
[5] = test system: Chlamydophila psittaci; assay: Antimicrobial activity against Chlamydophila psittaci infected in Vero cells; format: functional; conditions: Chlamydia psittaci
[6] = Antimicrobial activity against Waddlia chondrophila 2032/99 infected in Acanthamoeba castellanii amoeba cells; format: functional
[7] = test system: Chlamydia trachomatis; assay: Antimicrobial activity against Chlamydia trachomatis infected in Vero cells; format: functional

Row | SMILES | MIC [1] [µg/mL] | MIC [2] [µg/mL] | MIC [3] [µg/mL] | MIC [4] [µg/mL] | MIC [5] [µg/mL] | MIC [6] [µg/mL] | MIC [7] [µg/mL]
1 | CC1(C)S[C@@H]2[C@H](NC(=O)[C@H](N)c3ccc(O)cc3)C(=O)N2[C@H]1C(=O)O [AMOXICILLIN] | > 32 |  |  |  |  |  | 
2 | CC1(C)S[C@@H]2[C@H](NC(=O)[C@H](N)c3ccccc3)C(=O)N2[C@H]1C(=O)O [AMPICILLIN] |  | > 100 | > 32 | > 32 |  |  | 
3 | CC[C@H]1OC(=O)[C@H](C)[C@@H](O[C@H]2C[C@@](C)(OC)[C@@H](O)[C@H](C)O2)[C@H](C)[C@@H](O[C@@H]2O[C@H](C)C[C@H](N(C)C)[C@H]2O)[C@](C)(O)C[C@@H](C)CN(C)[C@H](C)[C@@H](O)[C@]1(C)O [AZITHROMYCIN] |  | 0.06 (≈ 0.0801 µM) | 0.06 (≈ 0.0801 µM) | 0.25 (≈ 0.334 µM) | 0.125 (≈ 0.167 µM) | 0.06 (≈ 0.0801 µM) | 0.125 (≈ 0.167 µM)
4 | CO/N=C(\C(=O)N[C@@H]1C(=O)N2C(C(=O)O)=C(CSc3nc(=O)c(O)nn3C)CS[C@H]12)c1csc(N)n1 [CEFTRIAXONE] | > 32 |  | > 32 | > 32 |  |  | > 32
5 | O=C(O)c1cn(C2CC2)c2cc(N3CCNCC3)c(F)cc2c1=O [CIPROFLOXACIN] | > 16 | 1 (≈ 3.02 µM) | > 16 | > 16 | 1 (≈ 3.02 µM) |  | 0.5 (≈ 1.51 µM)
6 | C[C@H]1c2cccc(O)c2C(=O)C2=C(O)[C@]3(O)C(=O)C(C(N)=O)=C(O)[C@@H](N(C)C)[C@@H]3[C@@H](O)[C@@H]21.O [DOXYCYCLINE] | 0.5 | 0.03 | 4 | 0.25 | 0.03 | 1 | 0.03
7 | CC1COc2c(N3CCN(C)CC3)c(F)cc3c(=O)c(C(=O)O)cn1c23 (stereo not drawn) [OFLOXACIN] | > 16 | 0.5 (≈ 1.38 µM) | > 16 | > 16 | 0.5 (≈ 1.38 µM) |  | 0.5 (≈ 1.38 µM)
